From patent publication EP1220870B1, “METAL-BINDING COMPOUNDS AND USES THEREFOR” (DMI Biosciences, Inc., priority 1999, dated 2001)
No end group written: not given here.

Columns and labels:
Type in all cases: biochemical
[1] = system: hydroxyl radicals; test: Inhibition of hydroxyl radical production, Cu(II)/ascorbic acid deoxyribose TBA assay (Example 10); conditions: compound/copper 2:1; for % Inhibition: percent decrease in absorbance compared to buffer alone
Protocol: The ability of the compounds listed above to inhibit the generation of hydroxyl radicals was tested as described in Gutteridge and Wilkins, Biochim. Biophys. Acta, 759:38-41 (1983). Briefly, Cu(II) and ascorbic acid were mixed causing the generation of hydroxyl radicals. Then, deoxyribose was added, and the hydroxyl radicals, if present, attacked the deoxyribose to produce fragments. […]. Thus, absorbance at 532 nm is a measure of the damage to deoxyribose and, therefore, of hydroxyl radical formation.
To perform the assay, CuCl2 in buffer (20 mM KH2PO4 buffer, pH 7.4) and either one of the test compounds in buffer or buffer alone were added to test tubes (final concentration of CuCl2 was 10µM). The test tubes were incubated for 15 minutes at room temperature. Then, 0.5 mM ascorbic acid in buffer and 1.9 mM 2-deoxy-D-ribose in buffer were added to each test tube, and the test tubes were incubated for 1 hour at 37°C. Finally, 1 ml of 1% (w/v) TBA in 50 mM NaOH and 1 ml of concentrated acetic acid were added to each test tube, and the test tubes were incubated in boiling water for 15 minutes. After the test tubes had cooled for 15 minutes, the absorbance at 532 nm was read.

[2] = target: Superoxide radical; test: Superoxide dismutase (SOD) activity, xanthine oxidase/NBT assay; conditions: for SOD activity (inhibition of NBT reduction): xanthine oxidase assay, pH 10.2, 1.2 µM EDTA
Protocol: The SOD activity of copper complexes of the tetrapeptide L-Asp L-Ala L-His L-Lys [SEQ ID NO:1] was assayed. Superoxide radicals were produced using the xanthine oxidase assay of Beauchamp and Fridovich, Anal. Biochem., 44:276-287 (1971). Xanthine oxidase converts xanthine into uric acid, with oxygen acting as an electron acceptor. This causes superoxide radical to be produced. Superoxide radical is able to reduce nitro blue tetrazolium (NBT). Reduced NBT has a λmax of 560 nm. It is known that copper inhibits xanthine oxidase activity (Konstantinova et al., Free Rad. Res. Comms., 12-13:215-220 (1991)), so all experiments containing copper also contained ethylenediaminetetracetic acid (EDTA), a known copper chelator.
To perform the assay for SOD activity, 0.1 mM xanthine (Sigma Chemical Co.), 25 µM NBT (Sigma Chemical Co.), 50 mM sodium carbonate, and 1.2 µM EDTA (Sigma Chemical Co.), were mixed in a cuvette (all final concentrations, final pH 10.2). The reaction was started by the addition of various amounts of a tetrapeptide-copper complex (tetrapeptide/copper ratios of 1:1 and 2:1) and 20 nM xanthine oxidase (Sigma Chemical Co.). The tetrapeptide-copper complex was prepared by mixing the tetrapeptide and copper (as CuCl2) and allowing the mixture to incubate for 15 minutes at room temperature immediately before addition to the cuvette. The samples were read at time 0 and every 60 seconds for five minutes at 560 nm.

[3] = target: T1, xanthine oxidase (Bos taurus, UniProt P80457); test: Uric acid production at 295 nm (check for interference with xanthine oxidase activity); conditions: concentration of 600 nM; data not shown
T1 construct: purchased Sigma Chemical Co
T1 sequence (P80457 whole entry): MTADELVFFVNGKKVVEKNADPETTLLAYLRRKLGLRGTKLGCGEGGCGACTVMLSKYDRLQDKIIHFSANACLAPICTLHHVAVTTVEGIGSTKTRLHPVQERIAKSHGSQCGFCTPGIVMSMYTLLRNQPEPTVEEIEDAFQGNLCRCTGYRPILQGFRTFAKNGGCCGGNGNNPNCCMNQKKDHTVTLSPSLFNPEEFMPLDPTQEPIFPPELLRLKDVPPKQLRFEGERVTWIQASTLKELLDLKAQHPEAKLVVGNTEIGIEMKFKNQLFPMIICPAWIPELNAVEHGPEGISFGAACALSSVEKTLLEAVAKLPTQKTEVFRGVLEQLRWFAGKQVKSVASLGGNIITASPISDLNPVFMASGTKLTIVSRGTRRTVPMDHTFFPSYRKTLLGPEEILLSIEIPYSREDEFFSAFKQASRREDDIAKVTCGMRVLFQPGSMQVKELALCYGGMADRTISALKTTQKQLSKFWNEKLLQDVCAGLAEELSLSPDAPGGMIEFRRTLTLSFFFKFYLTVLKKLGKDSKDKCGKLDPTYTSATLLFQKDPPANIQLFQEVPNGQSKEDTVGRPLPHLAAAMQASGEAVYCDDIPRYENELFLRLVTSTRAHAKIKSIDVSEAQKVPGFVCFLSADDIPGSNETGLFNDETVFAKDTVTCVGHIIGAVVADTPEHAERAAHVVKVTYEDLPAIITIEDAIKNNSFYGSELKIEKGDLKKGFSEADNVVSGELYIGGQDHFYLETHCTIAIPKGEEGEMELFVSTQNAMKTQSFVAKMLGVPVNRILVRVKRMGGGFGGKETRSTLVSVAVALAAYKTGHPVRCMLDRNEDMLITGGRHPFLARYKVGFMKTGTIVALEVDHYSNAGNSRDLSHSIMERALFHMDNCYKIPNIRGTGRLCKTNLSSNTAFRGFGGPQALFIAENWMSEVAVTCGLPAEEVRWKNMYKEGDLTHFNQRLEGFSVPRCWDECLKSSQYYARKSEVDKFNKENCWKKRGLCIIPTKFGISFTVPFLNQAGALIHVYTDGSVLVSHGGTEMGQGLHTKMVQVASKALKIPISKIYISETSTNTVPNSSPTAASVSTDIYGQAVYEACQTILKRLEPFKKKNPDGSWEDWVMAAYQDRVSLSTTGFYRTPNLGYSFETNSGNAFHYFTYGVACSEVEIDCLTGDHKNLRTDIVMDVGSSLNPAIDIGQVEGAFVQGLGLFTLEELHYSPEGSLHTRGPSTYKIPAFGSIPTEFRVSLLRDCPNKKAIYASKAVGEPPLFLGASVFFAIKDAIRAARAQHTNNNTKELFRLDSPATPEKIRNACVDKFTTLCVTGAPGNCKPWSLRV
Protocol: Athar et al., Biochem. Mol. Biol. Int., 39(4):813-821 (1996); Ciuffi et al., Pharmacol Res., 38(4):279-287 (1998). This assay is similar to the SOD assay, except that NBT is not present. Instead, uric acid is assayed at 295 nm every 60 seconds for 5 minutes. […] Since superoxide is converted to hydrogen peroxide by the complex, this could help to explain why it is not effective at preventing hydroxyl radical production.

[4] = system: Superoxide radical; test: Superoxide radical production, NBT reduction with copper and ascorbate; conditions: 37°C, read at 560 nm at 5, 15, 30 and 60 minutes, maximum decreased for the 1:1 complex
Protocol: Superoxide radical production was measured in solutions containing the 1:1 or 2:1 tetrapeptide-copper complexes. The assay combined techniques from the TBA assay and the xanthine oxidase assay. NBT was added to all test tubes in order to quantitate its reduction by superoxide radical. The samples also contained ascorbate and copper and were incubated at 37°C. At 5,15,30 and 60 minutes, the samples were removed from the incubator and read at 560 nm. In the sample containing the 2:1 tetrapeptide-copper complex, NBT reduction increased over time and reached a maximum at 3 0 minutes.

Compound | % Inhibition [1] | % Inhibition ([1]; listed as Histindine) [%] | Absorbance at 532 nm ([1]; second absorbance column (copper only 0.954)) | times less effective than SOD itself, based on IC50 values ([2]; tetrapeptide/copper ratio 1:1, IC50 = amount that gives 50% inhibition) | SOD activity (inhibition of NBT reduction) [2] | SOD activity (inhibition of NBT reduction) ([2]; listed as complex of the tetrapeptide with copper at a ratio of 1:1) | inhibition of uric acid production [3] [%] | time at which NBT reduction reached a maximum [4] [min]
N[C@@H](Cc1c[nH]cn1)C(=O)O [Histidine, histidine] | about 20% | 20.3 | 0.760 | – | – | – | – | –
1:1 tetrapeptide-copper complex: complex of L-Asp L-Ala L-His L-Lys and copper (as CuCl2), tetrapeptide/copper ratio 1:1 (DAHK; also: copper complex, peptide:Cu 1:1 (as CuCl2); UniProt P02768 25-28, looked up, fragment) | – | – | – | about 500 times | true SOD activity | have SOD activity | 11 | 60
2:1 tetrapeptide-copper complex: complex of L-Asp L-Ala L-His L-Lys and copper (as CuCl2), tetrapeptide/copper ratio 2:1 (DAHK; also: copper complex, peptide:Cu 2:1 (as CuCl2); UniProt P02768 25-28, looked up, fragment) | – | – | – | – | no SOD activity | – | – | –
